# “Also recorded” adds a separate entry of the source.
# Columns and labels:
# [1] = system: DNA; details: activated by light without metabolic activation; cited from earlier work
# [2] = system: ds-DNA in DNA/RuPVP/1B1 films (cyt P450 1B1 supersomes); assay: ECL genotoxicity array, DNA/RuPVP/1B1 films; assay type: biochemical, human; details: 25 μM B[a]P or 50 μM B[ghi]P with NADPH
# [3] = system: mouse skin; details: cited from earlier work
# [4] = system: ds-DNA with cyt P4501A1, 1B1 and 1A2 supersomes; details: electro-optical toxicity screening arrays
# [5] = system: DNA in PDDA/supersomes/PDDA/DNA biocolloids (1A1 and 1B1 supersomes); assay type: biochemical, human; details: 20-mins reaction of B[ghi]P with biocolloid enzyme/DNA reactors
# [6] = with exogenous activation; cited from earlier work
# [7] = system: ds-DNA in DNA/RuPVP/1A2 films (cyt P450 1A2 supersomes); assay: ECL genotoxicity array, DNA/RuPVP/1A2 films; assay type: biochemical, human; details: 25 μM B[a]P or 50 μM B[ghi]P with NADPH
# [8] = system: DNA; details: in vivo and in vitro; cited from earlier work
smiles,measurement,setting,value
"c1cc2ccc3ccc4ccc5cccc6c(c1)c2c3c4c56 [B[ghi]P, benzo[ghi]perylene]",DNA damage in Comet assays,[1],yielded DNA damage
same,Normalized ECL turnover rate (R),[2],34.3 μg^−1•protein•min^−1•mM
same,Tumor initiation,[3],not found to initiate tumors; also recorded: negative
same,Lower rate of DNA damage by B[ghi]P metabolites than benzo[a]pyrene,[4],3 fold
same,"Detection of DNA adducts of B[ghi]P 3,4-oxide (mass transitions of Table 3)",[5],no peaks were found
same,Mutagenicity in the Ames test,[6],displays mutagenicity
same,Normalized ECL turnover rate (R),[7],23.3 μg^−1•protein•min^−1•mM
same,Binding of active metabolites to DNA,[8],active metabolites can bind to DNA

# — paper PMC3763812 (Chemical research in toxicology, 2013)
